pIC50: −log10 of the molar value.
Experiments:
[1] = test system: Con-A activated naive mouse splenocytes; test: Con-A-induced mouse splenocyte proliferation, alamar blue staining; assay type: cell-based; conditions: Splenocyte, 48 hr, alamar blue, read-out: IC50, inhibition in cell viability
Source text: This example illustrates cell viability data obtained by separately administering different concentrations of compound (Ia), paroxetine, citalopram, and ecitalopram to Con-A activated naive mouse splenocytes. FIG. 3A depicts the comparative effect of compound (Ia), paroxetine, citalopram and ecitalopram on Con-A-induced mouse splenocyte proliferation using alamar blue staining after 48 hr. Each point represents the mean+/−SE of 5 determinations.

[2] = test system: CEM/C1 human leukemia cells; test: Cell proliferation of CEM/C1 human leukemia cells, 3H thymidine incorporation; assay type: cell-based
Procedure: […] Cells, 10,000/well, were harvested and the incorporated radioactivity was determined by liquid scintillation in a beta counter.

human tumor cell lines = test: In vitro antitumor activity in panel of 37 human tumor cell lines (Monolayer Assay, PI), summary; assay type: cell-based
human glioma U87 cells = test: Viability of human glioma U87 cell-line; assay type: cell-based; conditions: FIG. 9
UXF 1138L = test: Monolayer Assay, PI: UXF 1138L (Uterus Body); assay type: cell-based, human
Source text: (§1) This example illustrates cell proliferation data in the form of IC50, IC70 and IC90 values obtained by exposure of human cancer cell-lines to compound (Ia). […].

RXF 393NL = test: Monolayer Assay, PI: RXF 393NL (Renal); assay type: cell-based, human
Source text: as §1

RXF 944L = test: Monolayer Assay, PI: RXF 944L (Renal); assay type: cell-based, human
Source text: as §1

LXF H460 = test: Monolayer Assay, PI: LXF H460 (Lung); assay type: cell-based, human
Source text: as §1

PRXF DU145 = test: Monolayer Assay, PI: PRXF DU145 (Prostate); assay type: cell-based, human
Source text: as §1

MEXF 520L = test: Monolayer Assay, PI: MEXF 520L (Melanoma); assay type: cell-based, human
Source text: as §1

RXF 1781L = test: Monolayer Assay, PI: RXF 1781L (Renal); assay type: cell-based, human
Source text: as §1

BXF 1218L = test: Monolayer Assay, PI: BXF 1218L (Bladder); assay type: cell-based, human
Source text: as §1

[3] = test system: BCL2 expression in human Jurkat lymphoma cells; test: Western blot of BCL2 expression in human Jurkat lymphoma cell-line; assay type: cell-based; conditions: FIG. 10
Source text: This example illustrates western blot data corresponding to BCL2 expression in a human Jurkat lymphoma cell-line treated with different concentrations of compound (Ia). The results are depicted in FIG. 10.

[4] = test system: IFN γ secretion in Con-A activated naive mouse splenocytes; test: IFN γ secretion in Con-A activated naive mouse splenocytes; assay type: cell-based; conditions: FIG. 3B
Source text: This example illustrates IFN y secretion data obtained by separately administering different concentrations of compound (Ia), paroxetine, citalopram, and ecitalopram to Con-A activated naive mouse splenocytes. The results are depicted in FIG. 3B.

LXF 289L = test: Monolayer Assay, PI: LXF 289L (Lung); assay type: cell-based, human
Source text: as §1

[5] = test system: human Jurkat lymphoma cells; test: Viability of human Jurkat lymphoma cells, dexamethasone alone and in combination; assay type: cell-based
[6] = mean over human cancer cell-lines

CN[C@H]1CC[C@@H](c2ccc(Cl)c(Cl)c2)c2ccc(C#CCCCO)cc21 [compound (Ia), (1S-cis)-4-(3,4-dichlorophenyl)-7-(5-hydroxy-1-pentyn-1-yl)-1,2,3,4-tetrahydro-N-methyl-1-naphthalenamine hydroiodide]
pIC50 [1]: 5.41
effect compared to sertraline and paroxetine [2]: significantly higher effects compared to sertraline and paroxetine
cell proliferation ([2]; 1 μM, 3H thymidine incorporation 24 hours): 38.8 % of controls
inhibition at 10 µM ([2]; Homo sapiens, 10 μM, 3H thymidine incorporation): ~95%
effect on cell proliferation ([2]; already evident at 1 μM): dose dependent decrease in cell proliferation
active*/total cell lines (human tumor cell lines; 2.3 μg/ml): 0/37
active*/total cell lines, percent (human tumor cell lines; 2.3 μg/ml): 0%
active*/total cell lines (human tumor cell lines; 7.5 μg/ml): 26/37
active*/total cell lines, percent (human tumor cell lines; 7.5 μg/ml (text: concentration of 7.5), hydroiodide): 70%
active*/total cell lines (human tumor cell lines; 23. μg/ml): 37/37
active*/total cell lines, percent (human tumor cell lines; 23. μg/ml): 100%
active*/total cell lines (human tumor cell lines; 75. μg/ml): 37/37
active*/total cell lines, percent (human tumor cell lines; 75. μg/ml): 100%
active*/total cell lines (human tumor cell lines; .75 μg/ml): 0/37
active*/total cell lines, percent (human tumor cell lines; .75 μg/ml): 0%
pIC50 (human tumor cell lines; [6]): 5.31
mean IC70 (human tumor cell lines; [6]): 6.9 µM
effect on cell viability (human glioma U87 cells): inhibit this glioma cell-line in a dose dependant fashion
efficacy compared with paroxetine (human glioma U87 cells): higher efficacy than paroxetine
Test/Control (%) (UXF 1138L; 2.3 μg/ml): 103%
Test/Control activity class (UXF 1138L; 2.3 μg/ml): − (− (T/C = 50))
Test/Control (%) (UXF 1138L; 7.5 μg/ml): 3%
Test/Control activity class (UXF 1138L; 7.5 μg/ml): +++ (+++ (T/C < 10))
Test/Control (%) (UXF 1138L; 23. μg/ml): 2%
Test/Control activity class (UXF 1138L; 23. μg/ml): +++ (+++ (T/C < 10))
Test/Control (%) (UXF 1138L; 75. μg/ml): 3%
Test/Control activity class (UXF 1138L; 75. μg/ml): +++ (+++ (T/C < 10))
Test/Control (%) (UXF 1138L; .75 μg/ml): 102%
Test/Control activity class (UXF 1138L; .75 μg/ml): − (− (T/C = 50))
Test/Control (%) (RXF 393NL; 2.3 μg/ml): 91%
Test/Control activity class (RXF 393NL; 2.3 μg/ml): − (− (T/C = 50))
Test/Control (%) (RXF 393NL; 7.5 μg/ml): 5%
Test/Control activity class (RXF 393NL; 7.5 μg/ml): +++ (+++ (T/C < 10))
Test/Control (%) (RXF 393NL; 23. μg/ml): 1%
Test/Control activity class (RXF 393NL; 23. μg/ml): +++ (+++ (T/C < 10))
Test/Control (%) (RXF 393NL; 75. μg/ml): 1%
Test/Control activity class (RXF 393NL; 75. μg/ml): +++ (+++ (T/C < 10))
Test/Control (%) (RXF 393NL; .75 μg/ml): 96%
Test/Control activity class (RXF 393NL; .75 μg/ml): − (− (T/C = 50))
Test/Control (%) (RXF 944L; 2.3 μg/ml): 103%
Test/Control activity class (RXF 944L; 2.3 μg/ml): − (− (T/C = 50))
Test/Control (%) (RXF 944L; 7.5 μg/ml): 9%
Test/Control activity class (RXF 944L; 7.5 μg/ml): +++ (+++ (T/C < 10))
Test/Control (%) (RXF 944L; 23. μg/ml): 3%
Test/Control activity class (RXF 944L; 23. μg/ml): +++ (+++ (T/C < 10))
Test/Control (%) (RXF 944L; 75. μg/ml): 3%
Test/Control activity class (RXF 944L; 75. μg/ml): +++ (+++ (T/C < 10))
Test/Control (%) (RXF 944L; .75 μg/ml): 94%
Test/Control activity class (RXF 944L; .75 μg/ml): − (− (T/C = 50))
Test/Control (%) (LXF H460; 2.3 μg/ml): 95%
Test/Control activity class (LXF H460; 2.3 μg/ml): − (− (T/C = 50))
Test/Control (%) (LXF H460; 7.5 μg/ml): 2%
Test/Control activity class (LXF H460; 7.5 μg/ml): +++ (+++ (T/C < 10))
Test/Control (%) (LXF H460; 23. μg/ml): 1%
Test/Control activity class (LXF H460; 23. μg/ml): +++ (+++ (T/C < 10))
Test/Control (%) (LXF H460; 75. μg/ml): 1%
Test/Control activity class (LXF H460; 75. μg/ml): +++ (+++ (T/C < 10))
Test/Control (%) (LXF H460; .75 μg/ml): 101%
Test/Control activity class (LXF H460; .75 μg/ml): − (− (T/C = 50))
Test/Control (%) (PRXF DU145; 2.3 μg/ml): 94%
Test/Control activity class (PRXF DU145; 2.3 μg/ml): − (− (T/C = 50))
Test/Control (%) (PRXF DU145; 7.5 μg/ml): 4%
Test/Control activity class (PRXF DU145; 7.5 μg/ml): +++ (+++ (T/C < 10))
Test/Control (%) (PRXF DU145; 23. μg/ml): 1%
Test/Control activity class (PRXF DU145; 23. μg/ml): +++ (+++ (T/C < 10))
Test/Control (%) (PRXF DU145; 75. μg/ml): 1%
Test/Control activity class (PRXF DU145; 75. μg/ml): +++ (+++ (T/C < 10))
Test/Control (%) (PRXF DU145; .75 μg/ml): 102%
Test/Control activity class (PRXF DU145; .75 μg/ml): − (− (T/C = 50))
Test/Control (%) (MEXF 520L; 2.3 μg/ml): 83%
Test/Control activity class (MEXF 520L; 2.3 μg/ml): − (− (T/C = 50))
Test/Control (%) (MEXF 520L; 7.5 μg/ml): 8%
Test/Control activity class (MEXF 520L; 7.5 μg/ml): ++ (++ (10 <= T/C < 30))
Test/Control (%) (MEXF 520L; 23. μg/ml): 2%
Test/Control activity class (MEXF 520L; 23. μg/ml): +++ (+++ (T/C < 10))
Test/Control (%) (MEXF 520L; 75. μg/ml): 4%
Test/Control activity class (MEXF 520L; 75. μg/ml): +++ (+++ (T/C < 10))
Test/Control (%) (MEXF 520L; .75 μg/ml): 102%
Test/Control activity class (MEXF 520L; .75 μg/ml): − (− (T/C = 50))
Test/Control (%) (RXF 1781L; 2.3 μg/ml): 76%
Test/Control activity class (RXF 1781L; 2.3 μg/ml): − (− (T/C = 50))
Test/Control (%) (RXF 1781L; 7.5 μg/ml): 4%
Test/Control activity class (RXF 1781L; 7.5 μg/ml): +++ (+++ (T/C < 10))
Test/Control (%) (RXF 1781L; 23. μg/ml): 3%
Test/Control activity class (RXF 1781L; 23. μg/ml): +++ (+++ (T/C < 10))
Test/Control (%) (RXF 1781L; 75. μg/ml): 3%
Test/Control activity class (RXF 1781L; 75. μg/ml): +++ (+++ (T/C < 10))
Test/Control (%) (RXF 1781L; .75 μg/ml): 96%
Test/Control activity class (RXF 1781L; .75 μg/ml): − (− (T/C = 50))
Test/Control (%) (BXF 1218L; 2.3 μg/ml): 97%
Test/Control activity class (BXF 1218L; 2.3 μg/ml): − (− (T/C = 50))
Test/Control (%) (BXF 1218L; 7.5 μg/ml): 92%
Test/Control activity class (BXF 1218L; 7.5 μg/ml): − (− (T/C = 50))
Test/Control (%) (BXF 1218L; 23. μg/ml): 4%
Test/Control activity class (BXF 1218L; 23. μg/ml): +++ (+++ (T/C < 10))
Test/Control (%) (BXF 1218L; 75. μg/ml): 5%
Test/Control activity class (BXF 1218L; 75. μg/ml): +++ (+++ (T/C < 10))
Test/Control (%) (BXF 1218L; .75 μg/ml): 101%
Test/Control activity class (BXF 1218L; .75 μg/ml): − (− (T/C = 50))
BCL2 expression [3]: rapid dose dependent decrease in the levels of the protooncogene Bcl2
IFN γ secretion inhibitory activity [4]: greater IFN γ secretion inhibitory activity than paroxetine, citalopram, and ecitalopram
Test/Control (%) (LXF 289L; 2.3 μg/ml): 101%
Test/Control activity class (LXF 289L; 2.3 μg/ml): − (− (T/C = 50))
Test/Control (%) (LXF 289L; 7.5 μg/ml): 42%
Test/Control activity class (LXF 289L; 7.5 μg/ml): + (+ (30 <= T/C < 50))
Test/Control (%) (LXF 289L; 23. μg/ml): 4%
Test/Control activity class (LXF 289L; 23. μg/ml): +++ (+++ (T/C < 10))
Test/Control (%) (LXF 289L; 75. μg/ml): 3%
Test/Control activity class (LXF 289L; 75. μg/ml): +++ (+++ (T/C < 10))
Test/Control (%) (LXF 289L; .75 μg/ml): 94%
Test/Control activity class (LXF 289L; .75 μg/ml): − (− (T/C = 50))
inhibition of cell viability compared with sertraline and paroxetine ([5]; FIG. 13A): higher than that produced by either sertraline or paroxetine
cytotoxicity at 20 µM ([5]; Homo sapiens, 20 μM alone, FIG. 13B, read-out: inhibition of cell viability): 69%
